From publication PMC11515387, “VvD14c-VvMAX2-VvLOB/VvLBD19 module is involved in the strigolactone-mediated regulation of grapevine root architecture” (Molecular Horticulture, 2024)

Target: T1, VvD14c (Vitis vinifera, UniProt A0ACM8QNI4)
T1 construct: gene VIT_18s0001g09140; pET-28b, His-tag, E. coli Rosetta (DE3); VvD14c encodes 267 amino acids
Assay: surface plasmon resonance (Biacore 8K, CM5 chip, LMW multi-cycle kinetics/affinity)
Assay type: binding

T1 sequence (A0ACM8QNI4 entry or part of it): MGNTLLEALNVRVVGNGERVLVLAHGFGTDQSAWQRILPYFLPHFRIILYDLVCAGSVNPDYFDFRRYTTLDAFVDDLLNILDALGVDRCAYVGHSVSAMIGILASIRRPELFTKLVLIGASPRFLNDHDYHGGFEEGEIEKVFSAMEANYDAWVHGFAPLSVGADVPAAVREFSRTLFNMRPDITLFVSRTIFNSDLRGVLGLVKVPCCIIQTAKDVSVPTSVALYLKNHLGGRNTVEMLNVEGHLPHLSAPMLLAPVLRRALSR

Kd: 5.65 nM
Compound: CC1=C[C@@H](O/C=C2/C(=O)O[C@@H]3c4ccccc4C[C@H]23)OC1=O [GR24]
